Measured values as given in patent US11197826B2, “Oil-in-water emulsions including retinoic acid” (NOVARTIS AG, priority 2015, dated 2021).

Tests used:
[1] = cited from earlier work
[2] = test system: CCR9 on CD4+ T-cells expressing the DO-11.10 T-cell receptor; assay: Adoptive T-cell transfer with fingolimod: CCR9 expression and proliferation of DO-11.10 CD4+ T-cells in draining lymph nodes; type: in vivo, mice; details: FACS, MF59-adjuvanted ovalbumin plus retinoic acid versus MF59 plus plain vehicle
Procedure: Reference describes experimental protocols for studying the homing of T-cells in mice who receive retinoic acid. In brief, T-cells specific for test antigens (in the present case, ovalbumin) are adoptively transferred into mice and their behaviour in response to specific treatments is studied. This general experimental procedure was used to assess the effect of MF59 and retinoic acid on CCR9 expression in T-cells, and on their in vivo migration.
Mice were injected intravenously with 2×10^6 CD4^+ T-cells which react to ovalbumin peptides (DO-11.10 cells). These cells were labelled with CFSE before being administered. At around the same time they were given either retinoic acid or a plain vehicle. The next day they received MF59-adjuvanted ovalbumin, and the next day they again received RA or plain vehicle, plus fingolimod (which blocks the egress of lymphocytes from lymph nodes). A few days later their draining lymph nodes were drained and CD4^+ T-cells expressing the DO-11.10 T-cell receptor were tested for CCR9 expression by FACS. The CFSE label was used to trace cell proliferation.

[3] = Mucosal antibody responses after MF59-adjuvanted immunisation; type: in vivo, mice
Procedure: To assess antibody responses mice were injected with 3 doses of either ovalbumin or H56 (a […] antigen) on days 0, 21, and 42, adjuvanted with MF59. The day before and after each immunization one group of mice were given retinoic acid whereas control mice received a plain vehicle instead. Serum IgG and vaginal wash IgA antibody responses were assessed at day 56. IgA-secreting cells were also measured in the bone marrow.

CC1=C(/C=C/C(C)=C/C=C/C(C)=C/C(=O)O)C(C)(C)CCC1 [retinoic acid]
solubility in oil [1]: soluble | solubility in water [1]: sparingly soluble | number of CCR9-positive cells, fold higher [2]: about 5 × | proportion of IgA-secreting cells, fold higher, H56 ([3]; bone marrow, H56 adjuvanted with MF59, retinoic acid versus plain vehicle): around 12 × | proportion of IgA-secreting cells, fold higher, ovalbumin ([3]; bone marrow, ovalbumin adjuvanted with MF59, retinoic acid versus plain vehicle): about 7 × | antigen-specific IgA titres in vaginal washes ([3]; day 56, 3 MF59-adjuvanted doses, plain vehicle essentially zero): about 1250
